Measured values: patent US20220056014A1, “PHENYLPYRROLIDINE COMPOUND AND USE THEREOF” (WUHAN HUMANWELL INNOVATIVE DRUG RESEARCH AND DEVELOPMENT …, priority 2018, published 2022)
Like-named read-outs stand apart in the source and are kept apart here.

Legend:
[1] = test system: LPS-induced secretion of TNFα in human PBMCs; experiment: LPS-induced secretion of TNFα in human PBMCs; type: cell-based; settings: Homo sapiens, PBMC, 24 h, LPS 10 ng/ml
Method in brief: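 PBMCs isolated by Lymphoprep density centrifugation were seeded at 5×10^4/well in RPMI1640 + 10% FBS and given compound, with 30 min pre-incubation, then stimulated with 10 ng/ml LPS (final). After 24 h, supernatant TNF-α was measured by ELISA kit.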

[2] = test system: LPS-stimulated TNF-α release; experiment: LPS-stimulated TNF-α release in mice; type: in vivo, Balb/c mice; settings: Mus musculus, oral 50 mg/kg (positive control 100 mg/kg), 1 mg/kg LPS i.p.
Method in brief: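 Balb/c mice (6 per group) dosed orally with 50 mg/kg compound, then 1 mg/kg LPS i.p. 30 min later; serum taken 90 or 120 min post-LPS. Serum TNF-α measured by ELISA; inhibition % calculated relative to model and blank (PBS) groups.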

[3] = Mouse pharmacokinetic test; type: in vivo, CD-1 mice; settings: male, CD-1, plasma, oral gavage 10 mg/kg
Experimental: (§1) In the rat pharmacokinetic test, 3 male SD rats (180-240 g) were fasted overnight, and orally administered with 10 mg/kg of compound to be tested. Blood was collected before the administration, and 15 min, 30 min, 1 h, 2 h, 4 h, 8 h, and 24 h hours after the administration. The blood sample was centrifuged at 8000 rpm for 6 min at 4° C., and the plasma was collected and stored at −20° C. The plasma collected at each time point was added and mixed with 3-5 times the amount of acetonitrile solution containing an internal standard, vortexed for 1 min, centrifuged at 13,000 rpm for 10 min at 4° C. The supernatant was taken and mixed with 3 times the amount of water, and an appropriate amount of the mixture was taken for LC-MS/MS analysis. The main pharmacokinetic parameters were analyzed with WinNonlin 7.0 software non-compartmental model.
(§2) In the mouse pharmacokinetic test, 9 male CD-1 mice (20-25 g) were fasted overnight, and orally administered with 10 mg/kg of the compound to be tested. Bloods of 3 mice were collected at each time point, and bloods of 9 mice were alternately collected in total. In the pharmacokinetic test in canine, 3 male beagle dogs (8-10 kg) were fasted overnight, and orally administered with 5 mg/kg of the compound to be test. In the pharmacokinetic test of cynomolgus monkeys, 3 male cynomolgus monkeys (4 to 6.5 kg) were fasted overnight, and orally administered 20 mg/kg of the compound to be test. The remaining processes are the same as those of the rat pharmacokinetic test.

Rat pharmacokinetic test = type: in vivo, SD rats; settings: male, Sprague-Dawley (SD), plasma, oral gavage 10 mg/kg
Experimental: as §1

[4] = Pharmacokinetic test of cynomolgus monkeys; type: in vivo; settings: male, plasma; cynomolgus monkey, oral gavage 20 mg/kg
Experimental: as §1, §2

[5] = 1.5 h, blood 90 min after LPS, read-out: Inhibition rate (%) of LPS-stimulated TNF-α release, 90 min
[6] = 2 h, blood 120 min after LPS, read-out: Inhibition rate (%) of LPS-stimulated TNF-α release, 120 min

`COc1ccc([C@@H]2CN(C(=O)[C@@H](O)CO)C[C@@]2(C)[C@@H](C)O)cc1OC1CN(c2ncc(C)cc2F)C1` [Compound 004, (S)-1-((3S,4S)-4-(3-((1-(3-fluoro-5-methylpyridin-2-yl)azetidin-3-yl)oxy)-4-methoxyphenyl)-3-((R)-1-hydroxyethyl)-3-methylpyrrolidin-1-yl)-2,3-dihydroxypropan-1-one] showed an IC50 [1] of 5.13 nM, an inhibition in vivo at 50 mg/kg [2, 5] of 39.6% and an inhibition in vivo at 50 mg/kg [2, 6] of 58.6%. For the same compound, the AUC(0-t) [3] was 896 ng·h/mL, the Cmax [3] was 378 ng/mL and the Tmax [3] was 30 min. It also gave an AUC(0-t) (Rat pharmacokinetic test) of 2480 ng·h/mL, a Cmax (Rat pharmacokinetic test) of 823 ng/mL and a Tmax (Rat pharmacokinetic test) of 25.2 min.
With `COc1ccc([C@@H]2CN(C(=O)[C@@H](O)CO)C[C@@]2(C)[C@@H](C)O)cc1OC1CN(c2ccc(Cl)c(C)n2)C1` [Compound 011, (S)-1-((3S,4S)-4-(3-((1-(5-chloro-6-methylpyridin-2-yl)azetidin-3-yl)oxy)-4-methoxyphenyl)-3-((R)-1-hydroxyethyl)-3-methylpyrrolidin-1-yl)-2,3-dihydroxypropan-1-one] the IC50 [1] was 1.55 nM, the inhibition in vivo at 50 mg/kg [2, 5] was 47.4% and the inhibition in vivo at 50 mg/kg [2, 6] was 63.3%. The AUC(0-t) [3] was 1050 ng·h/mL, the Cmax [3] was 316 ng/mL and the Tmax [3] was 30 min. It also gave an AUC(0-t) (Rat pharmacokinetic test) of 294 ng·h/mL, a Cmax (Rat pharmacokinetic test) of 126 ng/mL and a Tmax (Rat pharmacokinetic test) of 25.2 min.
For `COc1ccc([C@@H]2CN(C(=O)[C@@H](O)CO)C[C@@]2(C)[C@@H](C)O)cc1OC1CN(c2ccc(C)c(C)n2)C1` [Compound 007, (S)-1-((3S,4S)-4-(3-((1-(5,6-dimethylpyridin-2-yl)azetidin-3-yl)oxy)-4-methoxyphenyl)-3-((R)-1-hydroxyethyl)-3-methylpyrrolidin-1-yl)-2,3-dihydroxypropan-1-one], the AUC(0-t) [4] was 44400 ng·h/mL, the Cmax [4] was 13800 ng/mL and the Tmax [4] was 105 min. For the same compound, the IC50 [1] was 2.24 nM, the inhibition in vivo at 50 mg/kg [2, 5] was 52.1% and the inhibition in vivo at 50 mg/kg [2, 6] was 66.4%. For the same compound, the AUC(0-t) [3] was 332 ng·h/mL, the Cmax [3] was 125 ng/mL and the Tmax [3] was 30 min. The AUC(0-t) (Rat pharmacokinetic test) was 1530 ng·h/mL, the Cmax (Rat pharmacokinetic test) was 735 ng/mL and the Tmax (Rat pharmacokinetic test) was 30 min.
Work on `COc1ccc([C@@H]2CN(C(=O)[C@@H](O)CO)C[C@@]2(C)[C@@H](C)O)cc1OC1CN(c2ccc(C)cn2)C1` [Positive control compound, reference compound] yielded an AUC(0-t) [4] of 3640 ng·h/mL, a Cmax [4] of 565 ng/mL and a Tmax [4] of 90 min. For the same compound, the IC50 [1] was 3.32 nM, the inhibition in vivo at 50 mg/kg [2, 5] was 44.4% and the inhibition in vivo at 50 mg/kg [2, 6] was 49%. The AUC(0-t) [3] was 237 ng·h/mL, the Cmax [3] was 142 ng/mL and the Tmax [3] was 15 min. The AUC(0-t) (Rat pharmacokinetic test) was 190 ng·h/mL, the Cmax (Rat pharmacokinetic test) was 68.2 ng/mL and the Tmax (Rat pharmacokinetic test) was 30 min.
